Data on 15 compounds can be found in patent publication US20260014143A1, “Prostaglandin E synthase 3 (PTGES3) Inhibiting Compounds” (The Regents of the University of California, priority 2022, published 2026).

Data set [1] deals with Recombinant CysLite PTGES3. The data set is described as follows: BME competition assay: labeling of CysLite PTGES3 at high BME competitor. In kind it is binding. The following applies: 200 uM compound. As for the experimental part: Recombinant CysLite PTGES3 (1 μM, 50 mM Tris-HCl, pH 8.0, 150 mM NaCl) were incubated with 200 μM fragment (2% DMSO) and 500 μM or 1 mM BME at ambient temperature for 8 h. Reactions were quenched by the addition of formic acid to a final concentration of 0.4%. Labeling was determined by intact protein mass spectrometry.

The subject of data set [2] is Recombinant CysLite PTGES3. The data set is described as follows: Differential scanning fluorimetry (thermal shift) of fully labeled CysLite PTGES3. The following applies: cyslite PTGES3 fully labeled with compound. It counts as binding. The procedure:
Recombinant […] PTGES3 at a concentration of 8 μM in 50 mM HEPES pH 7.5, 150 mM NaCl were incubated with compounds or DMSO for unlabeled comparisons, at ambient temperature until complete labeling was observed by intact protein mass spectrometry. 7K Zeba Desalting columns (ThermoFisher) were used to remove excess compound. The Zeba 7K columns were first preequilibrated with 50 mM HEPES (pH 7.5), 150 mM NaCl. Sypro Orange (500x, DMSO) was added to the purified protein-small molecule conjugates to a final concentration of 5x Sypro Orange. These DSF assays were performed in triplicate in white 96-well plates. The plate was sealed with optically clear PCR sealing film (USA Scientific). The thermal shift assay was performed on a Bio-Rad CFX qPCR instrument. The temperature was increased from 23° C. to 95° C. at a rate of 0.5° C./s. After each temperature step, fluorescence was monitored with an excitation of 492 nm and emission of 610 nm. Raw fluorescence values were normalized between 0 and 1 and fit to a Boltzman equation using GraphPad Prism with the maximum value of the fit constrained to 1.
On the technique in general: DSF heats the sample and reads unfolding from a dye or from intrinsic fluorescence.

The subject of data set [3] is PTGES3 enhanced AR/ARE binding. The data set is described as follows: AR/ARE gel shift (EMSA) assay. To be noted: DHT+ buffer, free ARE DNA detected by SYBR gold. In kind it is biochemical. The procedure: The reactions were then loaded on a DNA retardation gel. ARE DNA bands were detected by SYBR gold. […] Experiment was performed twice to determine reproducibility.
Electrophoretic mobility shift assays (EMSA) were performed using recombinant AR protein (EMD Millipore) and 3×ARE dsDNA from the ARR3TK plasmid. Protein-DNA complexes were allowed to incubate in room temperature for 30 min in loading buffer (20 mM HEPES, 100 mM KCl, 2 ng/ml poly(dI-dC), 10% glycerol, and 20 nM DHT), followed by electrophoresis on 6% DNA Retardation Gels in TBE buffer (PH 8.0). Visualization of protein-DNA complexes was performed with SYBR Gold DNA staining dye (Invitrogen).
Background: Mobility shift assays separate free from complexed probe on a gel.

The next data set relates to PTGES3-AR interaction. Nature of the data set: Far western blot of AR-PTGES3 interaction. To be noted: CysLite PTGES3 pre-modified with compound. In kind it is biochemical. The procedure: Flag-AR was loaded on a gel, transferred to membrane, and renatured. The membranes were incubated with recombinant CysLite PTGES3 protein or recombinant CysLite PTGES3 protein labeled with 1. The interaction was detected with PTGES3 antibody. […] Each blot experiment was performed twice to determine reproducibility.

In data set [4] the target is T1, Recombinant CysLite PTGES3 (cysteine 76) (Homo sapiens, UniProt Q15185).
T1 sequence (Q15185 1-160): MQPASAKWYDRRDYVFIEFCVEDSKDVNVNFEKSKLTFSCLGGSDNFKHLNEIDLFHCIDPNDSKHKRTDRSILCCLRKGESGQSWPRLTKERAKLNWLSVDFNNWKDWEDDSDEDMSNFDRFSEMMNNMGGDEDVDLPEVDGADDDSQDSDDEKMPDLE
Nature of the data set: Dose response assay: labeling of recombinant CysLite PTGES3 by intact protein mass spectrometry. It counts as binding. The following applies: 100 uM BME, 1 μM protein, 1 h ambient temperature; read-out: EC50 with 100 uM BME competitor (half maximal labeling of cyslite PTGES3). As for the experimental part:
Recombinant CysLite PTGES3 (1 μM, 50 mM Tris-HCl, pH 8.0, 150 mM NaCl and 100 μM βME) were incubated for 1 h at ambient temperature with lead fragments (4% DMSO) in a 7-, 8- or 9-point threefold serial dilution series in duplicate. Reactions were quenched by the addition of formic acid to a final concentration of 0.4%. Labeling was determined by intact protein mass spectrometry.

The next data set relates to AR-independent PC3 cells. Nature of the data set: Cell growth of AR-independent PC3 cells. In kind it is cell-based. The procedure: (§1) Normalized to DMSO and analyzed by IncuCyte system (n=3 as biological replicates; Mean±SEM).
Fold change of cell count normalized over day 0 was analyzed by IncuCyte system (n=3 as biological replicates; Mean SEM). Unpaired two-tailed t-test was used to determine statistical significance (ns=no significant difference; *** P<0.001).

The nature of data set [5]: Parallel artificial membrane permeability assay (PAMPA). It counts as in vitro ADME. (In general: The PAMPA barrier holds no transporters, so it reflects passive diffusion.)
The test system of a further data set is AR+ LNCaP cells. The data set is described as follows: Cell growth of AR+ LNCaP cells. It counts as cell-based. The procedure: as §1
(§2) Compounds were tested at 100 uM for the ability to label cysteine 76 of cyslite PTGES3. In some cases labeling was not detected. Cyslite PTGES3 was then fully labeled with the compounds and the thermal shift values of the fully labeled protein was determined with stabilization values indicated below. […] Finally, select compounds were tested to determine if they inhibited cell growth in AR+LNCaP cells.
LNCaP cell lines were grown in the RPMI 1640 medium (Gibco) supplemented with 10% fetal bovine serum (FBS; Gibco). Cells were grown in a humidified 5% CO2 incubator at 37° C.

For data set [6], the system named is AR target genes, LNCaP cells. The data set is described as follows: AR target gene mRNA levels in LNCaP cells by real-time PCR. In kind it is cell-based. The following applies: 100 μM, 48 h, mRNA over 18s rRNA. As for the experimental part: RNA was collected, indicated genes mRNA levels over 18s rRNA were measured by real-time PCR (n=3 as biological replicates; Mean±SEM).

Data set [7] relates to AR protein levels, LNCaP cells. The data set is described as follows: AR protein levels in LNCaP cells by western blotting. It counts as cell-based. The following applies: 100 μM, 48 h, nuclear AR, western blot. As for the experimental part:
Nuclear AR and TBP levels were detected by western blotting. Each western blot experiment was performed twice to determine reproducibility.

In data set [8] the test system is cysteine 76 of cyslite PTGES3. Nature of the data set: Labeling of cysteine 76 of cyslite PTGES3 at 100 uM compound. It counts as binding. The procedure:
as §2

Each structure is given as a SMILES string. pEC50: −log10 of the molar value. Entries after “also recorded” stand apart in the source; their conditions may differ.

By pEC50 is commonly meant the negative decadic logarithm of the EC50, by convention in mol/L. On to `CN(C)CCSSCCNC(=O)[C@@H]1CN(C(=O)c2cc(F)c(O)c(Cl)c2)C[C@H]1c1ccccc1` (racemic) [Compound 1], for which the “% Labeling in presence of 500 uM BME competitor” value in data set [1] (500 uM BME) worked out at 79.03%. In data set [1] (1 mM BME), the “% Labeling in presence of 1 mM BME competitor” value came out at 76.67%. Moreover, the “Thermal Shift (Cyslite PTGES3) ΔTm” value in data set [2] is “confirmed by DSF to stabilize CysLite PTGES3”; in data set [2] (listed as compound 1), 1.6 °C. In data set [3], the “PTGES3 enhanced AR/ARE binding (gel shift)” value was “inhibited PTGES3 enhanced AR/ARE binding; also recorded: increases the free ARE levels”. Besides, the “PTGES3-AR interaction (far western blot)” value with PTGES3-AR interaction is given as “ablated in vitro PTGES3-AR interaction; also recorded: disrupted the PTGS3-AR interaction”. Moreover, the pEC50 in data set [4] is 4.15.

With `COC(=O)[C@@H]1CN(C(=O)c2cc(F)c(O)c(Cl)c2)C[C@H]1c1ccccc1` (racemic) [Compound 2], the “Growth of AR-independent PC3 (AR−) cells” value with AR-independent PC3 cells is on record as “not AR-independent PC3 cells; also recorded: not AR− negative cell lines”. Further, the PAMPA assay result in data set [5] is given as “Permeable”. Also, in the data set on AR+ LNCaP cells, the “AR + cell line activity (growth of AR-driven LNCaP cells)” value was “significantly reduced and inhibit cell proliferation in AR+ and Yes”. Moreover, in data set [6], the “Expression of AR target genes” value was “significantly reduced”. Further, the AR protein levels entry in data set [7] is reported as “significantly reduced”.

Consider `C=CS(=O)(=O)N[C@@H]1CN(C(=O)c2cc(F)c(O)c(Cl)c2)C[C@H]1c1ccccc1` [Compound 3], for which the “Thermal Shift (Cyslite PTGES3) ΔTm” value in data set [2] was “ΔTm + 3.3 °C”. In data set [8], the “4 h labeling (100 uM)” value was found to be 5.27% and the “24 h labeling (100 uM)” value is 28.15%.

Consider `C=CS(=O)(=O)N[C@@H]1CN(C(=O)c2ccccc2)C[C@H]1c1ccccc1` [Compound 4], for which the “Thermal Shift (Cyslite PTGES3) ΔTm” value in data set [2] was “ΔTm + 1.9 °C”. In addition, in [8], the “4 h labeling (100 uM)” value was 4.01% and the “24 h labeling (100 uM)” value turned out to be 20.75%.

In the case of `C=CS(=O)(=O)N[C@@H]1CN(C(=O)c2ccc(O)cc2)C[C@H]1c1ccccc1` [Compound 5], in data set [8], the “4 h labeling (100 uM)” value stood at 4.71% and the “24 h labeling (100 uM)” value amounted to 35.51%.

`C=CS(=O)(=O)N[C@@H]1CN(C(=O)c2ccc(S(N)(=O)=O)cc2)C[C@H]1c1ccccc1` [Compound 6]: the “Thermal Shift (Cyslite PTGES3) ΔTm” value in data set [2] was “ΔTm + 3.0 °C”. In [8], the “4 h labeling (100 uM)” value came out at 9.61% and the “24 h labeling (100 uM)” value is 44.20%. Further, in the data set on AR+ LNCaP cells, the “Cell activity (inhibited cell growth in AR+ LNCaP cells)” value is reported as “Yes”.

Consider `C=CS(=O)(=O)N[C@@H]1CN(C(=O)c2ccc(S(=O)(=O)NC)cc2)C[C@H]1c1ccccc1` [Compound 7], for which, in [2], the “Thermal Shift (Cyslite PTGES3) ΔTm” value is “ΔTm + 2.1 C. ° C”. In data set [8], the “4 h labeling (100 uM)” value is given as 7.21% and the “24 h labeling (100 uM)” value is listed as 36.40%.

For `C=CS(=O)(=O)N[C@@H]1CN(C(=O)c2cc(F)cc(Cl)c2)C[C@H]1c1ccccc1` [Compound 8], in [8], the “4 h labeling (100 uM)” value is “Not detected” and the “24 h labeling (100 uM)” value is given as 14.74%.

Turning to `C=CS(=O)(=O)N[C@@H]1CN(C(=O)c2ccc(S(N)(=O)=O)c(F)c2)C[C@H]1c1ccccc1` [Compound 9], the “Thermal Shift (Cyslite PTGES3) ΔTm” value in data set [2] is “ΔTm + 3.3 °C”. Besides, in data set [8], the “4 h labeling (100 uM)” value is given as 12.38% and the “24 h labeling (100 uM)” value is listed as 51.4%. Also, the “Cell activity (inhibited cell growth in AR+ LNCaP cells)” value with AR+ LNCaP cells was “Yes”.

Take `C=CS(=O)(=O)N[C@@H]1CN(C(=O)c2ccc(S(N)(=O)=O)c(Cl)c2)C[C@H]1c1ccccc1` [Compound 10]: the “Thermal Shift (Cyslite PTGES3) ΔTm” value in data set [2] was “ΔTm + 3.3 °C”. In data set [8], the “4 h labeling (100 uM)” value was “Not detected” and the “24 h labeling (100 uM)” value is recorded as 27.44%.

For `C=CS(=O)(=O)N[C@@H]1CN(C(=O)c2cccc(S(N)(=O)=O)c2)C[C@H]1c1ccccc1` [Compound 11], the “Thermal Shift (Cyslite PTGES3) ΔTm” value in [2] was “ΔTm + 0.4 °C”. For the same compound, in data set [8], the “4 h labeling (100 uM)” value was found to be 17.84% and the “24 h labeling (100 uM)” value came out at 72.62%. The “Cell activity (inhibited cell growth in AR+ LNCaP cells)” value in the data set on AR+ LNCaP cells was “Yes”.

For the compound `C=CS(=O)(=O)N1CCN(C(=O)[C@@H]2CN(C(=O)c3ccc(S(N)(=O)=O)c(F)c3)C[C@H]2c2ccccc2)CC1` [Compound 12], the “Thermal Shift (Cyslite PTGES3) ΔTm” value in data set [2] is “No stabilization”. In [8], the “4 h labeling (100 uM)” value is listed as 6.27% and the “24 h labeling (100 uM)” value is recorded as 36.65%.

As to `C=CS(=O)(=O)NCCNC(=O)[C@@H]1CN(C(=O)c2ccc(S(N)(=O)=O)c(F)c2)C[C@H]1c1ccccc1` [Compound 13], in data set [2], the “Thermal Shift (Cyslite PTGES3) ΔTm” value is given as “No stabilization”. Moreover, in [8], the “4 h labeling (100 uM)” value was “Not detected” and the “24 h labeling (100 uM)” value is recorded as 13.63%.

Regarding `C=CS(=O)(=O)NC1CN(C(=O)[C@@H]2CN(C(=O)c3ccc(S(N)(=O)=O)c(F)c3)C[C@H]2c2ccccc2)C1` [Compound 14], the “Thermal Shift (Cyslite PTGES3) ΔTm” value in data set [2] is listed as “No stabilization”. In addition, in [8], the “4 h labeling (100 uM)” value stood at 7.18% and the “24 h labeling (100 uM)” value worked out at 48.46%. The “Cell activity (inhibited cell growth in AR+ LNCaP cells)” value in the data set with AR+ LNCaP cells was “No”.

As for `CN(C)CCSSCCNC(=O)[C@@H]1CN(C(=O)c2cc(F)c(O)c(Cl)c2)C[C@H]1c1ccccc1` [Compound 994364], the “Thermal Shift (Cyslite PTGES3) ΔTm” value in data set [2] is recorded as “increases the thermal melt temperature”.
